Data reported in the supplement of paper PMC10307832.

How the values were obtained:
Assay in all cases: relative viability (nuclei count vs DMSO), 5 days (fraction); higher = more cells survive
[1] = system: NCI-H727
Procedure, shortened: (§1)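 The day after seeding in 1536-well plates, lung cancer cell lines were treated by pin tool with a single drug, or with a fixed anchor-drug dose together with five library-drug doses (not always all listed) in √10 steps. After 5 days, a combined fix-and-stain solution (final 0.05% Triton X-100, 1% formaldehyde, 1 ug/ml Hoechst) was added. Nuclei counted on 4× images gave relative viability as treated counts over vehicle counts, reported as the median of duplicate plates.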

[2] = system: HCC-827
Procedure, shortened: as §1

[3] = system: NCI-H2085
Procedure, shortened: as §1

[4] = system: HCC-366
Procedure, shortened: as §1

[5] = system: HCC-78
Procedure, shortened: as §1

[6] = system: SK-LU-1
Procedure, shortened: as §1

[7] = system: NCI-H1395
Procedure, shortened: as §1

[8] = system: EPLC-272H
Procedure, shortened: as §1

[9] = system: NCI-H1975
Procedure, shortened: as §1

[10] = system: UMC-11
Procedure, shortened: as §1

[11] = system: HCC-15
Procedure, shortened: as §1

[12] = system: NCI-H1792
Procedure, shortened: as §1

[13] = system: NCI-H661
Procedure, shortened: as §1

[14] = system: NCI-H2405
Procedure, shortened: as §1

[15] = system: NCI-H1944
Procedure, shortened: as §1

[16] = system: COR-L23
Procedure, shortened: as §1

[17] = system: HARA
Procedure, shortened: as §1

[18] = system: NCI-H2023
Procedure, shortened: as §1

[19] = system: COR-L 105
Procedure, shortened: as §1

[20] = system: LCLC-103H
Procedure, shortened: as §1

[21] = system: NCI-H358
Procedure, shortened: as §1

[22] = system: NCI-H1437
Procedure, shortened: as §1

[23] = system: HCC-44
Procedure, shortened: as §1

`Cc1cnc(-c2cnc(NCCNc3ccc(C#N)cn3)nc2-c2ccc(Cl)cc2Cl)[nH]1` + Nc1ncn([C@H]2C[C@H](O)[C@@H](CO)O2)c(=O)n1 [Decitabine] (partner 2 µM) showed a relative viability ([1]; first compound 0.08 µM) of 0.867, a relative viability ([1]; first compound 0.253 µM) of 0.937 and a relative viability ([1]; first compound 0.8 µM) of 0.838. It also gave a relative viability ([1]; first compound 2.53 µM) of 0.766, a relative viability ([2]; first compound 0.08 µM) of 0.328 and a relative viability ([2]; first compound 0.253 µM) of 0.299. It also gave a relative viability ([2]; first compound 0.8 µM) of 0.326, a relative viability ([2]; first compound 2.53 µM) of 0.287 and a relative viability ([3]; first compound 0.08 µM) of 0.535. It also gave a relative viability ([3]; first compound 0.253 µM) of 0.554, a relative viability ([3]; first compound 0.8 µM) of 0.542 and a relative viability ([3]; first compound 2.53 µM) of 0.572. The relative viability ([4]; first compound 0.08 µM) was 0.372, the relative viability ([4]; first compound 0.253 µM) was 0.318 and the relative viability ([4]; first compound 0.8 µM) was 0.288. For the same compound, the relative viability ([4]; first compound 2.53 µM) was 0.335, the relative viability ([5]; first compound 0.08 µM) was 0.692 and the relative viability ([5]; first compound 0.253 µM) was 0.507. For the same compound, the relative viability ([5]; first compound 0.8 µM) was 0.767, the relative viability ([5]; first compound 2.53 µM) was 0.731 and the relative viability ([6]; first compound 0.08 µM) was 0.645. The relative viability ([6]; first compound 0.253 µM) was 0.478, the relative viability ([6]; first compound 0.8 µM) was 0.688 and the relative viability ([6]; first compound 2.53 µM) was 0.711. It also gave a relative viability ([7]; first compound 0.08 µM) of 0.774, a relative viability ([7]; first compound 0.253 µM) of 0.714 and a relative viability ([7]; first compound 0.8 µM) of 0.737. The relative viability ([7]; first compound 2.53 µM) was 0.757, the relative viability ([8]; first compound 0.08 µM) was 0.436 and the relative viability ([8]; first compound 0.253 µM) was 0.353. For the same compound, the relative viability ([8]; first compound 0.8 µM) was 0.352, the relative viability ([8]; first compound 2.53 µM) was 0.467 and the relative viability ([9]; first compound 0.08 µM) was 0.349. For the same compound, the relative viability ([9]; first compound 0.253 µM) was 0.361, the relative viability ([9]; first compound 0.8 µM) was 0.409 and the relative viability ([9]; first compound 2.53 µM) was 0.314. The relative viability ([10]; first compound 0.08 µM) was 0.727, the relative viability ([10]; first compound 0.253 µM) was 0.533 and the relative viability ([10]; first compound 0.8 µM) was 0.314. For the same compound, the relative viability ([10]; first compound 2.53 µM) was 0.668, the relative viability ([11]; first compound 0.08 µM) was 0.701 and the relative viability ([11]; first compound 0.253 µM) was 0.588. For the same compound, the relative viability ([11]; first compound 0.8 µM) was 0.756, the relative viability ([11]; first compound 2.53 µM) was 0.704 and the relative viability ([12]; first compound 0.08 µM) was 0.564. For the same compound, the relative viability ([12]; first compound 0.253 µM) was 0.476, the relative viability ([12]; first compound 0.8 µM) was 0.542 and the relative viability ([12]; first compound 2.53 µM) was 0.469. The relative viability ([13]; first compound 0.08 µM) was 0.609, the relative viability ([13]; first compound 0.253 µM) was 0.545 and the relative viability ([13]; first compound 0.8 µM) was 0.569. For the same compound, the relative viability ([13]; first compound 2.53 µM) was 0.551, the relative viability ([14]; first compound 0.08 µM) was 0.799 and the relative viability ([14]; first compound 0.253 µM) was 0.734. The relative viability ([14]; first compound 0.8 µM) was 0.758, the relative viability ([14]; first compound 2.53 µM) was 0.645 and the relative viability ([15]; first compound 0.08 µM) was 0.476. For the same compound, the relative viability ([15]; first compound 0.8 µM) was 0.5, the relative viability ([15]; first compound 2.53 µM) was 0.402 and the relative viability ([16]; first compound 0.08 µM) was 0.521. It also gave a relative viability ([16]; first compound 0.253 µM) of 0.367, a relative viability ([16]; first compound 0.8 µM) of 0.521 and a relative viability ([16]; first compound 2.53 µM) of 0.548. The relative viability ([17]; first compound 0.08 µM) was 0.654, the relative viability ([17]; first compound 0.253 µM) was 0.471 and the relative viability ([17]; first compound 0.8 µM) was 0.553. For the same compound, the relative viability ([17]; first compound 2.53 µM) was 0.642, the relative viability ([18]; first compound 0.08 µM) was 0.232 and the relative viability ([18]; first compound 0.253 µM) was 0.195. It also gave a relative viability ([18]; first compound 0.8 µM) of 0.241, a relative viability ([18]; first compound 2.53 µM) of 0.228 and a relative viability ([19]; first compound 0.08 µM) of 0.639. The relative viability ([19]; first compound 0.253 µM) was 0.619, the relative viability ([19]; first compound 0.8 µM) was 0.707 and the relative viability ([19]; first compound 2.53 µM) was 0.49. It also gave a relative viability ([20]; first compound 0.08 µM) of 0.732, a relative viability ([20]; first compound 0.253 µM) of 0.722 and a relative viability ([20]; first compound 0.8 µM) of 0.751. It also gave a relative viability ([20]; first compound 2.53 µM) of 0.728, a relative viability ([21]; first compound 0.08 µM) of 0.234 and a relative viability ([21]; first compound 0.253 µM) of 0.208. The relative viability ([21]; first compound 0.8 µM) was 0.248, the relative viability ([21]; first compound 2.53 µM) was 0.213 and the relative viability ([22]; first compound 0.08 µM) was 0.538. It also gave a relative viability ([22]; first compound 0.253 µM) of 0.511, a relative viability ([22]; first compound 0.8 µM) of 0.558 and a relative viability ([22]; first compound 2.53 µM) of 0.563. The relative viability ([23]; first compound 0.08 µM) was 0.846, the relative viability ([23]; first compound 0.253 µM) was 0.561 and the relative viability ([23]; first compound 0.8 µM) was 0.925. It also gave a relative viability ([23]; first compound 2.53 µM) of 1.02.
